Data reported in patent publication US8809583B2, “Methods for producing isomers of muconic acid and muconate salts” (Amyris, Inc., priority 2010, dated 2014).

How the values were obtained:
Assay type in all cases: physicochemical
[1] = Isomerization of cis,cis-muconate to cis,trans-muconate in crude fermentation broth, monitored by 1H NMR and HPLC; conditions: for time until isomerization cis,cis to cis,trans is essentially complete: pH 4, 60° C.
Protocol: cis,cis-muconate produced from a renewable carbon source through biocatalytic conversion (e.g., according to the method of Examples 7 and 7A) was provided, and the fermentation culture including the cis,cis-muconate was warmed to 60° C. The warmed fermentation culture was adjusted to pH 4 by adding 2 N sulfuric acid over 0.5 h. The acidified culture was allowed to react for 3.5 h.
The reaction was monitored by ^1H NMR and HPLC equipped with the Prevail Organic Acid Column (150 mm×4.6 mm), to determine the endpoint of the reaction. […] In general, such isomerization reactions can be monitored to determine appropriate reaction parameters (e.g., time, temperature, pH, and the like).

[2] = Solubility of muconic acid isomers in organic solvents
[3] = Solvent extraction of slurry of cis,trans-muconic acid in M9 salts (simulated broth) acidified to pH 3.0, precipitate left in; conditions: 63.34 g/L incl. precipitate
Protocol: (§1) To individual 50 mL conical centrifuge tubes each containing 15 mL of the filtered broth were added 15 mL of each solvent listed in tables below. Each tube was agitated for two minutes and the organic and aqueous phases allowed to separate. The aqueous layer was separated from the solvent layer by pipette and placed into a new 50 mL conical tube. Both the aqueous and solvent phases of each extraction were analyzed for muconic acid using HPLC. A second extraction was performed on each of the separated aqueous layers using fresh solvent. Again the samples were agitated, allowed to settle and the aqueous and organic phases were separated and analyzed.
To test the ability of solvent extraction to recover cis,trans-muconic acid after acidification to sufficiently low levels that significant amounts of the cis,trans-muconic acid has precipitated, a solution of cis,trans-muconic acid in a solution of M9 salts was used to simulate a fermentation broth. 15 grams of cis,trans-muconic acid were added to 250 mL of M9 salts giving an approximate titer of 60 g/L. This was achieved by raising the pH to 7.0 using sodium hydroxide. The broth was then acidified with sulfuric acid to pH 3.0 causing the cis,trans-muconic acid to precipitate. The solid precipitate was left in the acidified mixture, and the entire slurry was extracted twice with solvent as described above.

[4] = Precipitation of cis,trans-muconate from clarified broth at different pH values
Text: Following isomerization (e.g., as in Example 8), broth containing cis,trans-muconic acid was cooled to approximately ambient temperature and the cells, cell debris and precipitated solids were removed from the culture broth by centrifugation. Alternatively, such solids can be removed by filtration (e.g., through a 100 kD SARTOCON® Slice cassette). The cell-free broth was then clarified by filtration (e.g., through a 10 kD SARTOCON® Slice cassette), to remove proteins. […]

[5] = Solvent extraction of cis,trans-muconic acid from acidified, filtered fermentation broth (HPLC of both phases); conditions: pH about 3
Protocol: Fermentation broth was obtained that had been isomerized to cis,trans-muconic acid, and was acidified to a pH of about 3. The solid cis,trans-muconic acid was removed by filtration to leave acidified fermentation broth containing approximately 5 to 10 grams per Liter of cis,trans-muconic acid.
as §1
Different broth samples with different amounts of cis,trans-muconic acid were used to generate the results in each table.

[6] = broth 4.86 g/L, cyclohexanone, first line (extraction number not given)
[7] = broth 4.86 g/L, cyclohexanone, second line (extraction number not given)
[8] = broth 4.86 g/L, ethyl hexanol, first line (extraction number not given)
[9] = broth 4.86 g/L, ethyl hexanol, second line (extraction number not given)
[10] = broth 4.86 g/L, isoalcohol, first line (extraction number not given)
[11] = broth 4.86 g/L, isoalcohol, second line (extraction number not given)
[12] = broth 4.86 g/L, xylene, first line (extraction number not given)
[13] = broth 4.86 g/L, xylene, second line (extraction number not given)
[14] = broth 9.82 g/L, 1-butanol, extraction 1
[15] = broth 9.82 g/L, 1-butanol, extraction 2
[16] = broth 9.82 g/L, Octanol, extraction 1
[17] = broth 9.82 g/L, Octanol, extraction 2
[18] = broth 9.82 g/L, tBME, extraction 1
[19] = broth 9.82 g/L, tBME, extraction 2
[20] = broth 10.69 g/L, 1-pentanol, extraction 1
[21] = broth 10.69 g/L, 1-pentanol, extraction 2
[22] = broth 10.69 g/L, MEK, extraction 1
[23] = broth 10.69 g/L, MEK, extraction 2
[24] = broth 10.69 g/L, MeTHF, extraction 1
[25] = broth 10.69 g/L, MeTHF, extraction 2
[26] = broth 10.69 g/L, cyclohexane, extraction 1
[27] = broth 10.69 g/L, cyclohexane, extraction 2
[28] = broth 10.69 g/L, cylcohexanol, extraction 1
[29] = broth 10.69 g/L, cylcohexanol, extraction 2
[30] = broth 10.69 g/L, decalin, extraction 1
[31] = broth 10.69 g/L, decalin, extraction 2
[32] = broth 10.69 g/L, n-butyl acetate, extraction 1
[33] = broth 10.69 g/L, n-butyl acetate, extraction 2

With `O=C(O)/C=C\C=C/C(=O)O` [cis,cis-muconate, cis,cis-muconic acid] the “time until isomerization cis,cis to cis,trans is essentially complete” value ([1]; HPLC traces and time course) was “about 1.25 hours”, the “time until isomerization cis,cis to cis,trans is essentially complete” value ([1]; crude fermentation broth, 1H NMR) was “about 1.25 hours” and the “isomerization from cis,cis to cis,trans-muconic acid” value ([1]; pH 7, HPLC traces and time course) was “essentially no isomerization”. The “isomerization from cis,cis to cis,trans muconic acid” value ([1]; pH 7, crude fermentation broth, 0 to 3.25 hours, 1H NMR) was “essentially no isomerization”.

For `O=C(O)/C=C\C=C\C(=O)O` [cis,trans-muconic acid], the “solubility in organic solvents compared with the other isomers” value [2] was “more soluble in organic solvents than either of the cis,cis or trans,trans isomers”, the “Muconic acid in aqueous phase” value ([3]; MeTHF, extraction 1) was 2.03 g/L and the “Muconic acid in organic phase” value ([3]; MeTHF, extraction 1) was 47.10 g/L. For the same compound, the Partition coefficient ([3]; MeTHF, extraction 1) was 23.20, the “Muconic acid in aqueous phase” value ([3]; MeTHF, extraction 2) was 0.11 g/L and the “Muconic acid in organic phase” value ([3]; MeTHF, extraction 2) was 1.64 g/L. For the same compound, the Partition coefficient ([3]; MeTHF, extraction 2) was 14.91, the “Muconic acid in aqueous phase” value ([3]; cyclohexanol, extraction 1) was 10.53 g/L and the “Muconic acid in organic phase” value ([3]; cyclohexanol, extraction 1) was 51.37 g/L. For the same compound, the Partition coefficient ([3]; cyclohexanol, extraction 1) was 4.88, the “Muconic acid in aqueous phase” value ([3]; cyclohexanol, extraction 2) was 2.71 g/L and the “Muconic acid in organic phase” value ([3]; cyclohexanol, extraction 2) was 3.75 g/L. For the same compound, the Partition coefficient ([3]; cyclohexanol, extraction 2) was 1.38, the “Muconic acid in aqueous phase” value ([3]; cyclohexanone, extraction 1) was 2.92 g/L and the “Muconic acid in organic phase” value ([3]; cyclohexanone, extraction 1) was 51.05 g/L. The Partition coefficient ([3]; cyclohexanone, extraction 1) was 17.48, the “Muconic acid in aqueous phase” value ([3]; cylcohexanone, extraction 2) was 0.20 g/L and the “Muconic acid in organic phase” value ([3]; cylcohexanone, extraction 2) was 2.10 g/L. The Partition coefficient ([3]; cylcohexanone, extraction 2) was 10.50, the “Muconic acid in aqueous phase” value ([3]; tBME, extraction 1) was 54.00 g/L and the “Muconic acid in organic phase” value ([3]; tBME, extraction 1) was 0.00 g/L. The Partition coefficient ([3]; tBME, extraction 1) was 0.00, the “Muconic acid in aqueous phase” value ([3]; tBME, extraction 2) was 59.88 g/L and the “Muconic acid in organic phase” value ([3]; tBME, extraction 2) was 0.00 g/L. For the same compound, the Partition coefficient ([3]; tBME, extraction 2) was 0.00, the “% ctMA in filtrate” value ([4]; pH 2.0) was 18 weight % and the “% ctMA in filtrate” value ([4]; pH 2.5) was 18 weight %. The ctMA in precipitate ([4]; pH 2.5) was 64 weight %, the “% ctMA in filtrate” value ([4]; pH 3.0) was 22 weight % and the ctMA in precipitate ([4]; pH 3.0) was 61 weight %. For the same compound, the “cis,trans-muconic acid originally in the solution that precipitates” value ([4]; pH 3, Table 2) was “about 60%”, the “cis,trans-muconic acid remaining in solution” value ([4]; pH 3, Table 2) was “approximately 40%” and the “% ctMA in filtrate” value ([4]; pH 3.5) was 26 weight %. The ctMA in precipitate ([4]; pH 3.5) was 58 weight %, the “% ctMA in filtrate” value ([4]; pH 4.0) was 75 weight % and the ctMA in precipitate ([4]; pH 4.0) was 22 weight %. The “% ctMA in filtrate” value ([4]; pH 4.7) was 100 weight %, the ctMA in precipitate ([4]; pH 4.7) was 0 weight % and the “Muconic acid in aqueous phase” value [5, 6] was 0.21 g/L. The “Muconic acid in organic phase” value [5, 6] was 6.11 g/L, the Partition coefficient [5, 6] was 29.10 and the “Muconic acid in aqueous phase” value [5, 7] was 0.23 g/L. For the same compound, the “Muconic acid in organic phase” value [5, 7] was 0.00 g/L, the Partition coefficient [5, 7] was “large” and the “Muconic acid in aqueous phase” value [5, 8] was 0.89 g/L. For the same compound, the “Muconic acid in organic phase” value [5, 8] was 3.83 g/L, the Partition coefficient [5, 8] was 4.30 and the “Muconic acid in aqueous phase” value [5, 9] was 0.20 g/L. For the same compound, the “Muconic acid in organic phase” value [5, 9] was 0.79 g/L, the Partition coefficient [5, 9] was 3.95 and the “Muconic acid in aqueous phase” value [5, 10] was 0.63 g/L. The “Muconic acid in organic phase” value [5, 10] was 4.87 g/L, the Partition coefficient [5, 10] was 7.73 and the “Muconic acid in aqueous phase” value [5, 11] was 0.04 g/L. For the same compound, the “Muconic acid in organic phase” value [5, 11] was 0.49 g/L, the Partition coefficient [5, 11] was 12.25 and the “Muconic acid in aqueous phase” value [5, 12] was 5.15 g/L. For the same compound, the “Muconic acid in organic phase” value [5, 12] was 0.00 g/L, the Partition coefficient [5, 12] was 0.00 and the “Muconic acid in aqueous phase” value [5, 13] was 4.82 g/L. For the same compound, the “Muconic acid in organic phase” value [5, 13] was 0.00 g/L, the Partition coefficient [5, 13] was 0.00 and the “Muconic acid in aqueous phase” value [5, 14] was 1.10 g/L. The “Muconic acid in organic phase” value [5, 14] was 6.26 g/L, the Partition coefficient [5, 14] was 5.69 and the “Muconic acid in aqueous phase” value [5, 15] was 0.27 g/L. For the same compound, the “Muconic acid in organic phase” value [5, 15] was 0.51 g/L, the Partition coefficient [5, 15] was 1.89 and the “Muconic acid in aqueous phase” value [5, 16] was 2.19 g/L. The “Muconic acid in organic phase” value [5, 16] was 5.40 g/L, the Partition coefficient [5, 16] was 2.47 and the “Muconic acid in aqueous phase” value [5, 17] was 1.52 g/L. The “Muconic acid in organic phase” value [5, 17] was 0.53 g/L, the Partition coefficient [5, 17] was 0.35 and the “Muconic acid in aqueous phase” value [5, 18] was 2.05 g/L. The “Muconic acid in organic phase” value [5, 18] was 6.53 g/L, the Partition coefficient [5, 18] was 3.19 and the “Muconic acid in aqueous phase” value [5, 19] was 0.72 g/L. The “Muconic acid in organic phase” value [5, 19] was 1.23 g/L, the Partition coefficient [5, 19] was 1.71 and the “Muconic acid in aqueous phase” value [5, 20] was 1.29 g/L. For the same compound, the “Muconic acid in organic phase” value [5, 20] was 8.29 g/L, the Partition coefficient [5, 20] was 6.43 and the “Muconic acid in aqueous phase” value [5, 21] was 0.30 g/L. For the same compound, the “Muconic acid in organic phase” value [5, 21] was 1.06 g/L, the Partition coefficient [5, 21] was 3.53 and the “Muconic acid in aqueous phase” value [5, 22] was 2.63 g/L. For the same compound, the “Muconic acid in organic phase” value [5, 22] was 9.65 g/L, the Partition coefficient [5, 22] was 3.67 and the “Muconic acid in aqueous phase” value [5, 23] was 0.84 g/L. For the same compound, the “Muconic acid in organic phase” value [5, 23] was 1.99 g/L, the Partition coefficient [5, 23] was 2.37 and the “Muconic acid in aqueous phase” value [5, 24] was 0.65 g/L. The “Muconic acid in organic phase” value [5, 24] was 7.40 g/L, the Partition coefficient [5, 24] was 11.38 and the “Muconic acid in aqueous phase” value [5, 25] was 0.00 g/L. For the same compound, the “Muconic acid in organic phase” value [5, 25] was 0.51 g/L, the Partition coefficient [5, 25] was “large” and the “Muconic acid in aqueous phase” value [5, 26] was 10.47 g/L. The “Muconic acid in organic phase” value [5, 26] was 0.00 g/L, the Partition coefficient [5, 26] was 0.00 and the “Muconic acid in aqueous phase” value [5, 27] was 10.20 g/L. The “Muconic acid in organic phase” value [5, 27] was 0.00 g/L, the Partition coefficient [5, 27] was 0.00 and the “Muconic acid in aqueous phase” value [5, 28] was 0.98 g/L. The “Muconic acid in organic phase” value [5, 28] was 8.62 g/L, the Partition coefficient [5, 28] was 8.80 and the “Muconic acid in aqueous phase” value [5, 29] was 0.28 g/L. The “Muconic acid in organic phase” value [5, 29] was 1.05 g/L, the Partition coefficient [5, 29] was 3.75 and the “Muconic acid in aqueous phase” value [5, 30] was 10.25 g/L. For the same compound, the “Muconic acid in organic phase” value [5, 30] was 0.00 g/L, the Partition coefficient [5, 30] was 0.00 and the “Muconic acid in aqueous phase” value [5, 31] was 12.99 g/L. For the same compound, the “Muconic acid in organic phase” value [5, 31] was 0.00 g/L, the Partition coefficient [5, 31] was 0.00 and the “Muconic acid in aqueous phase” value [5, 32] was 3.96 g/L. For the same compound, the “Muconic acid in organic phase” value [5, 32] was 6.78 g/L, the Partition coefficient [5, 32] was 1.71 and the “Muconic acid in aqueous phase” value [5, 33] was 2.02 g/L. The “Muconic acid in organic phase” value [5, 33] was 3.55 g/L and the Partition coefficient [5, 33] was 1.76.
